# Experimental data from patent US20260248771A1, “VALBENAZINE, A VMAT2 INHIBITOR, AS A FREE BASE A TOSYLATE OR DITOSYLATE SALT, FOR USE IN THE TREATMENT OF CHOREA ASSOCIATED WITH HUNTINGTON'S DISEASE” (Neurocrine Biosciences, Inc., priority 2022, published 2026).
# Tests used:
# Assay type in all cases: in vivo, human
# [1] = test system: subjects with HD; assay: Phase 3 placebo-controlled study: UHDRS total maximal chorea (TMC) score; conditions: for TMC score LS mean difference between treatment groups (valbenazine minus placebo): change from screening period baseline
# Description: As used herein, “Unified Huntington Disease Rating Scale” or “UHDRS” is the standard clinical assessment tool in Huntington disease. The UHDRS is divided into four domains: motor performance, cognitive function, behavioral abnormalities, and functional abilities. The motor section consists of 31 items assessing oculomotor, bradykinesia/rigidity, dystonia, chorea, and gait/balance. The items are rated from zero to four, with zero indicating normal findings and four indicating severe abnormalities. The range of the Total Motor Score (TMS) is 0 to 124, with higher scores indicating more severe motor impairment. The cognitive component includes the verbal fluency test, the symbol digit modalities test, and the Stroop test (color naming, word reading, and interference). Lower scores indicate worse cognitive performance. The behavioral assessment measures the frequency and severity of 11 items, which are rated from zero (almost never/absent) to four (almost always/severe). The items assess depression, anxiety, aggression, psychosis, and other behavioral abnormalities. The behavioral score ranges from 0 to 88, with higher scores indicating more severe psychiatric abnormalities. The functional domain comprises three components, namely the total functional capacity (TFC), the functional assessment scale (FAS), and the independence scale (IS). The TFC consists of five items (occupation, finances, domestic chores, activities of daily living, and care level) and ranges from 0 to 13. The FAS includes 25 yes/no questions about common daily tasks (range 0-25). The Independence Score (IS) measures the level of independence by one single score between 10 and 100. For all functional scores, lower scores indicate a worse function. See, Huntington Study Group, Unified Huntington Disease Rating Scale: reliability and consistency. Mov Disord. 1996; 11:136-142, which is incorporated by reference in its entirety.
# (§1) A Phase 3, randomized, double-blind, placebo-controlled study to evaluate the efficacy, safety, and tolerability of once-daily valbenazine in subjects with HD was conducted. The study included a 4-week screening period, an 8-week dose-adjustment period, a 4-week maintenance period, and a final study visit 2 weeks following the final dose of study drug.
# Valbenazine was supplied as orally administered capsules containing 20 or 40 mg of valbenazine (free base equivalents as the ditosylate salt). Subjects must swallow the capsules with approximately 4 ounces of water or other liquid, with or without food.
# During the dose-adjustment period, the investigator could increase a subject's dose to the next dose level if, in the investigator's opinion, the subject has tolerated the study drug at the current dose. Doses were adjusted in a blinded manner; subjects receiving placebo will undergo the dose-adjustment process but will continue to receive placebo. Dose increases were allowed at visits at the end of Weeks 2, 4, and 6. If the subject had not tolerated the current dose, the investigator could decrease the subject's dose at any time during the dose adjustment period (the 40 mg dose can be decreased to 20 mg). Doses were to be decreased 1 dose level at a time and subjects could have multiple dose decreases during the dose-adjustment period; subjects who were unable to tolerate the 20 mg dose could remain in the study but study drug dosing was discontinued.
# During the maintenance period (beginning after the Week 8 visit through the end of Week 12), the subject's dose was maintained. If the subject could not tolerate the maintenance dose, the investigator could reduce the subject's dose a single time by 1 dose level (unless the subject is receiving 20 mg); if the subject could not tolerate the lower dose, he/she could remain in the study but study drug dosing was discontinued.
# The primary endpoint for the study was change from baseline to maintenance in the Unified Huntington Disease Rating Scale total maximal chorea (TMC). […]
# [2] = test system: subjects with HD; assay: Phase 3 study: Patient Global Impression of Change (PGI-C) response status
# Description: In certain embodiments, the method is effective to result in an improvement in Patient Global Impression of Change (PGI-C) response status, wherein subjects whose score is either a 1 (“very much improved”) or a 2 (“much improved”) in PGI-C were classified as responders. In certain embodiments, at least about 20%, such as at least about 25%, at least about 30%, at least about 35%, at least about 40%, at least about 50%, at least about 55%, were classified as responders. In certain embodiments, at least about 25% of subjects were classified as responders after 12 weeks of treatment.
# as §1
# Secondary endpoints included: • Clinical Global Impression of Change (CGI-C) response status ([…] of “very much improved” or “much improved”) at Week 12; • Patient Global Impression of Change (PGI-C) response status ([…] of “very much improved” or “much improved”) at Week 12; • Change from baseline to Week 12 in the Quality of Life in Neurological Disorders Upper Extremity Function; and • Change from baseline to Week 12 in the Neuro-QoL Lower Extremity Function.
# (§2) Exploratory endpoints included: • Wearable movement sensors (in select sites; optional participation) using MC10 Inc., BIOSTAMP® NPOINT® system • Huntington Disease Health Index • Changes from the screening period baseline to each postbaseline study visit (Weeks 2 through 12) in the TMC based on site assessments • Changes from the screening period baseline to maintenance (the average of the Week 10 and Week 12 assessments) in the TMC based on video recording central rater assessments • CGI-C response at Weeks 2 through 10 • PGI-C response at Weeks 2 through 10 • The change from baseline to Weeks 4, 8, and 10 in the Neuro-QoL Upper Extremity Function T-score. • The change from baseline to Weeks 4, 8, and 10 in the Neuro-QoL Lower Extremity Function T-score • CGI-S at Weeks 2 through 12 • PGI-S at Weeks 2 through 12 • SF-36 at Week 12 • HD-HI at Week 10 and Week 12 • EQ-5D-5L at Week 10 and Week 12 • UHDRS scores for motor, behavior, and functional capacity assessment at Weeks 2 through 12 • Other UHDRS scores including functional assessment and independence scale at Week 12 • AS at Week 12 • Change from screening period in physical activity by movement sensors at the Week 10 visit period
# [3] = test system: subjects with HD; assay: Phase 3 study: Huntington Disease Health Index (HD-HI); conditions: for HD-HI hand and arm function subscale, change from baseline / HD-HI involuntary movements subscale, change from baseline / HD-HI mobility subscale, change from baseline: valbenazine group
# Description: as §2
# The HD-HI includes 13 subscales that measure 13 individual areas of health in patients with HD. Observed values and change from baseline were summarized descriptively for each subscale and the total instrument score by treatment group and visit.
# [4] = test system: subjects with HD; assay: Phase 3 study: Anosognosia Scale; conditions: baseline to Week 12; either treatment group
# Description: as §2
structure (smiles),measurement,setting,value
"COc1cc2c(cc1OC)[C@H]1C[C@@H](OC(=O)[C@@H](N)C(C)C)[C@H](CC(C)C)CN1CC2 [Valbenazine, (S)-2-amino-3-methyl-butyric acid (2R,3R,11bR)-3-isobutyl-9,10-dimethoxy-1,3,4,6,7,11b-hexahydro-2H-pyrido[2,1-a]isoquinolin-2-yl ester]",onset of improvement of chorea symptoms (TMC by study visit),"[1]; FIG. 4, post-hoc analysis vs placebo",noted as early as week 2
same,TMC score LS mean difference between treatment groups (valbenazine minus placebo),"[1]; Week 2, on-site assessments","minus placebo) were as follows: Week 2 (−1.26 [95% CI: −2.18, −0.34],"
same,TMC score LS mean difference between treatment groups (valbenazine minus placebo),"[1]; Week 4, on-site assessments","nominal p = 0.0077), Week 4 (−2.05 [95% CI: −3.12, −0.98],"
same,TMC score LS mean difference between treatment groups (valbenazine minus placebo),"[1]; Week 6, on-site assessments","nominal p = 0.0002), Week 6 (−1.69 [95% CI: −2.83, −0.55], nominal"
same,TMC score LS mean difference between treatment groups (valbenazine minus placebo),"[1]; Week 8, on-site assessments","p = 0.0041), Week 8 (−2.29 [95% CI: −3.46, −1.13], nominal"
same,TMC score LS mean difference between treatment groups (valbenazine minus placebo),"[1]; Week 10, on-site assessments","p = 0.0002); Week 10 (−3.10 [95% CI: −4.36, −1.84], nominal"
same,TMC score LS mean difference between treatment groups (valbenazine minus placebo),"[1]; Week 12, on-site assessments","p < 0.0001), and Week 12 (−3.22 [95% CI: −4.53, −1.91], nominal"
same,placebo-adjusted mean reduction in TMC score,"[1]; baseline to maintenance, vs placebo",3.2 units
same,LS mean change from screening period baseline to maintenance in TMC scores,"[1]; central video rater assessments, valbenazine group",in TMC scores as assessed by the central video raters was −3.51
same,"TMC score treatment difference, screening period baseline to maintenance","[1]; central video rater assessments, valbenazine vs placebo","of −2.59 (95% CI: −3.76, −1.41); p < 0.0001 (nominal), and was consistent"
same,"TMC CFSPB @ Maintenance, LS Mean","[1]; change from screening period baseline to maintenance (average of Week 10 and Week 12), on-site assessments, once-daily valbenazine up to 80 mg, N=64",−4.6
same,"TMC CFSPB @ Maintenance, LS Mean, Difference","[1]; valbenazine vs placebo, on-site assessments",−3.16
same,PGI-C response rate difference between treatment groups (valbenazine minus placebo),[2]; Week 2,"through 10 as follows: Week 2 (18.52% [95% CI: 5.48, 31.41],"
same,PGI-C response rate difference between treatment groups (valbenazine minus placebo),[2]; Week 4,"nominal p = 0.0042), Week 4 (18.57% [95% CI: 3.79, 32.70], nominal"
same,PGI-C response rate difference between treatment groups (valbenazine minus placebo),[2]; Week 6,"p = 0.0120), Week 6 (23.08% [95% CI: 5.60, 39.04], nominal"
same,PGI-C response rate difference between treatment groups (valbenazine minus placebo),[2]; Week 8,"p = 0.0064), Week 8 (26.44% [95% CI: 7.70, 42.49], nominal"
same,PGI-C response rate difference between treatment groups (valbenazine minus placebo),[2]; Week 10,"p = 0.0037), and Week 10 (16.94% [95% CI: −1.37, 34.63], nominal"
same,"PGI-C @ week 12, % responders","[2]; Week 12, valbenazine group",52.7%
same,"PGI-C @ week 12, % responders, Difference","[2]; Week 12, valbenazine vs placebo",26.3%
same,"HD-HI hand and arm function subscale, change from baseline",[3]; Week 10,−7.154
same,"HD-HI involuntary movements subscale, change from baseline",[3]; Week 10,−12.220
same,"HD-HI mobility subscale, change from baseline",[3]; Week 10,placebo for mobility (Week 10: −6.319 valbenazine vs −4.131
same,"HD-HI involuntary movements subscale, LS mean difference between treatment groups","[3]; Week 12, ANCOVA model",LS mean difference between treatment groups of −6.662 (95%
same,"HD-HI hand and arm function subscale, change from baseline",[3]; Week 12,−7.169
same,"HD-HI involuntary movements subscale, change from baseline",[3]; Week 12,−11.195
same,"HD-HI mobility subscale, change from baseline",[3]; Week 12,"placebo; Week 12: −4.208 vs −2.708), involuntary movements (Week"
same,"HD-HI total score, changes from baseline",[3]; Weeks 10 and 12,valbenazine group. No meaningful changes in the HD-HI total score
same,"Anosognosia Scale score, changes from baseline",[4],No clinically meaningful changes were noted from baseline to Week
